For data set [1], the system named is mouse Metastasis associated lung adenocarcinoma transcript 1 (Malat-1). The data set can be described thus: In vivo dose response of Isis No. 556062 with and without FTY-720 pre-treatment (Malat-1 RNA, Example 3). Conditions: mice, Liver. The protocol: (§1) Each treatment group consisted of 4 animals.
Malat-1 RNA levels were determined as described in Example 2. The results are presented in Table 18 as average Malat-1 RNA levels for each treatment group. Results for groups that received Isis No. 556062 alone are relative the group that received only PBS, and results for groups that received Isis No. 556062 and 1 mg/kg FTY-720 are relative to the group that received 1 mg/kg FTY-720 and PBS in place of Isis No. 556062.

Data set [2] in a line: Liver transaminase levels (ALT, AST) in serum, Example 3. The format is in vivo. Conditions: mice serum.
Text: as §1

Setting [3] is: 0.3 mg/kg 556062 subcutaneous, FTY-720 dose 0 mg/kg.
[4] abbreviates: 1 mg/kg 556062 subcutaneous, FTY-720 dose 0 mg/kg.
The mark [5] stands for this setting: 3 mg/kg 556062 subcutaneous, FTY-720 dose 0 mg/kg.
Setting [6] is: 9 mg/kg 556062 subcutaneous, FTY-720 dose 0 mg/kg.
Where [7] appears, read: 0.3 mg/kg 556062 subcutaneous, FTY-720 dose 1 mg/kg.
Where [8] appears, read: 1 mg/kg 556062 subcutaneous, FTY-720 dose 1 mg/kg.
Setting [9] is: 3 mg/kg 556062 subcutaneous, FTY-720 dose 1 mg/kg.
[10] abbreviates: 9 mg/kg 556062 subcutaneous, FTY-720 dose 1 mg/kg.

k = constrained ethyl (cEt); d = 2'-deoxy (DNA)

Turning to “556062 (antisense GGCTTAATGCAGCATT; sugars from the 5' end k3 d10 k3, all phosphorothioate, methylation of C not given here) [compound 556062]”, the “Average Malat-1 RNA” value in data set [1] (setting [3]) is given as 80 % control; in data set [1] (0.3 mg/kg 556062 subcutaneous, FTY-720 dose 1 mg/kg i.p. daily) it was 63 % control; in data set [1] (setting [4]), 49 % control; in data set [1] (1 mg/kg 556062 subcutaneous, FTY-720 dose 1 mg/kg i.p. daily), 36 % control; in data set [1] (setting [5]), 18 % control; in data set [1] (3 mg/kg 556062 subcutaneous, FTY-720 dose 1 mg/kg i.p. daily) it was 19 % control. For the same substance, the “Average Malat-1 RNA” value in data set [1] (setting [6]) turned out to be 11 % control; in data set [1] (9 mg/kg 556062 subcutaneous, FTY-720 dose 1 mg/kg i.p. daily), 6 % control. Besides, the ALT in data set [2] (setting [3]) is listed as 24 U/L; in data set [2] (setting [7]), 17 U/L; in data set [2] (setting [4]) it was 56 U/L; in data set [2] (setting [8]), 18 U/L; in data set [2] (setting [5]), 24 U/L; in data set [2] (setting [9]), 25 U/L. Further, the ALT is given as 31 U/L in data set [2] (setting [6]) and 24 U/L in data set [2] (setting [10]). Besides, the AST is reported as 48 U/L in data set [2] (setting [3]); 48 U/L in data set [2] (setting [7]); 50 U/L in data set [2] (setting [4]); 45 U/L in data set [2] (setting [8]); 58 U/L in data set [2] (setting [5]); 40 U/L in data set [2] (setting [9]). In addition, the AST in data set [2] (setting [6]) turned out to be 71 U/L; in data set [2] (setting [10]), 46 U/L.
